Test results: paper PMC7178866, “In vitro inhibitory effects of ganoderic acid A on human liver cytochrome P450 enzymes” (Pharmaceutical Biology, 2020)

Key:
CYP3A4 [1] = biological target: T1, CYP3A4 (Homo sapiens, UniProt P08684); test: Inhibition of CYP3A4 (testosterone 6β-hydroxylation) in pooled human liver microsomes; assay type: in vitro ADME
T1 construct: CYP3A4 catalyzed reactions (testosterone 6β-hydroxylation) in pooled HLM; from tissue; host or cells: pooled human liver microsomes
Method: (§1) All incubations were performed in triplicate, and the mean values were utilized. The typical incubation systems contained 100 mM potassium phosphate buffer (pH 7.4), NADPH generating system (1 mM NADP^+, 10 mM glucose-6-phosphate, 1 U/mL of glucose-6-phosphate dehydrogenase, and 4 mM MgCl2), the appropriate concentration of HLMs, a corresponding probe substrate and hispidulin (or positive inhibitor for different probe reactions) in a final volume of 200 μL.
(§2) The concentration of GAA was 100 μM, and the positive inhibitor concentrations were as follows: 10 μM furafylline for CYP1A2, 1 μM ketoconazole for CYP3A4, 10 μM tranylcypromine for CYP2A6, 50 μM clomethiazole for CYP2E1, 10 μM quinidine for CYP2D6, 10 μM sulfaphenazole for CYP2C9, 50 μM tranylcypromine for CYP2C19, 5 μM montelukast for CYP2C8. Probe substrates, positive inhibitors (except for dextromethorphan and quinidine, which were dissolved in water) and GAA were dissolved in methanol, with a final concentration of 1% (v/v), and 1% neat methanol was added to the incubations without inhibitor. There was a 3 min preincubation period (at 37 °C) before the reaction was initiated by adding an NADPH-generating system. The reaction was terminated by adding a 100 μL acetonitrile (10% trichloroacetic acid for CYP2A6) internal standard mix, and the solution was placed on ice. The mixture was centrifuged at 12,000 rpm for 10 min, and an aliquot (50 μL) of supernatant was transferred for HPLC analysis. The instrument used in this study was Agilent 1260 series instrument with DAD and FLD detector, and the quantitative assay for the corresponding metabolites was performed as previously reported (Lang et al. [2017]; Zhang et al. [2017]).
(§3) GAA (100 μM) was used to initially screen for its direct inhibitory effects towards different human CYP isoforms. […]
(§4) The enzyme kinetic parameters for the probe reaction were estimated from the best fit line, using least-squares linear regression of the inverse substrate concentration versus the inverse velocity (Lineweaver-Burk plots), and the mean values were used to calculate Vmax and Km. Inhibition data from the experiments that were conducted using multiple compound concentrations were represented by Dixon plots, and inhibition constant (Ki) values were calculated using non-linear regression according to the following equation: v=(VmaxS)/(Km(1+I/Ki)+S), where I is the concentration of the compound, Ki is the inhibition constant, S is the concentration of the substrate, and Km is the substrate concentration at half the maximum velocity (Vmax) of the reaction. The mechanism of the inhibition was assessed using the Lineweaver-Burk plots and the enzyme inhibition models. […]

CYP2E1 [2] = biological target: T2, CYP2E1 (Homo sapiens, UniProt P05181); test: Inhibition of CYP2E1 (chlorzoxazone 6-hydroxylation) in pooled human liver microsomes; assay type: in vitro ADME
T2 construct: CYP2E1 catalyzed reactions (chlorzoxazone 6-hydroxylation) in pooled HLM; from tissue; host or cells: pooled human liver microsomes
T2 sequence (P05181 whole entry): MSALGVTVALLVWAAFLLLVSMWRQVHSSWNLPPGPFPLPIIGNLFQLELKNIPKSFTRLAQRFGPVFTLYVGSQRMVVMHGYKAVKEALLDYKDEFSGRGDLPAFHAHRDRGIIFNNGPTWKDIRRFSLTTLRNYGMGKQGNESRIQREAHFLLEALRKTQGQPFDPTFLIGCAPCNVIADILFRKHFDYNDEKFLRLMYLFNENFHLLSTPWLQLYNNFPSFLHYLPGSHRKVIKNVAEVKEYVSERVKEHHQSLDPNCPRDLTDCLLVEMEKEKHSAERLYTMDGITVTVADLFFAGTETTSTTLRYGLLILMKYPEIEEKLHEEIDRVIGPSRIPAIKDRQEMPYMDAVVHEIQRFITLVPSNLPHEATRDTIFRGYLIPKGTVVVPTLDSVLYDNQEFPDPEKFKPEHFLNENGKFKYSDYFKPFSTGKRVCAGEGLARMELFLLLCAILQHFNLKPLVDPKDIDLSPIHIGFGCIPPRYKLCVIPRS
Method: as §1, §2, §3, §4

CYP2E1 [3] = biological target: T2, CYP2E1; test: Time-dependent inhibition study, CYP2E1 in human liver microsomes; assay type: in vitro ADME; details: GAA 20 μM pre-incubated with HLMs and NADPH for 30 min
Method: (§5) To determine whether GAA could inhibit the activity of CYP3A4, 2D6, and 2E1 in a time-dependent manner, GAA (20 μM) was pre-incubated with HLMs (1 mg/mL) in the presence of an NADPH-generating system for 30 min at 37 °C. After incubation, an aliquot (20 μL) was transferred to another incubation tube (final volume 200 μL) containing an NADPH-generating system and probe substrates whose final concentrations were approximate to Km. Then, further incubations were performed to measure the residual activity. After being incubated for 10 and 30 min, the reactions were terminated by adding a 100 μL acetonitrile internal standard mix and then placed on ice; the corresponding metabolites were determined by HPLC.

[4] = design: method as in Teekachunhatean et al. [2012]; Tseng et al. [2014]; details: after oral administration of 3000 mg Lingzhi; ref Teekachunhatean et al. [2012]; Tseng et al. [2014]; cited from earlier work
CYP3A4 [5] = biological target: T1, CYP3A4; test: Time-dependent inhibition study, CYP3A4 in human liver microsomes; assay type: in vitro ADME
Method: as §5
To determine the KI and Kinact values for the inactivation of CYP3A4, the incubations were conducted using higher probe substrate concentrations (approximately 4-fold Km values) and various concentrations of GAA (0–50 μM) after different preincubation times (0–30 min), with a two-step incubation scheme, as described above.

CYP2D6 [6] = biological target: T3, CYP2D6 (Homo sapiens, UniProt P10635); test: Inhibition of CYP2D6 (dextromethorphan O-demethylation) in pooled human liver microsomes; assay type: in vitro ADME
T3 construct: from tissue; host or cells: pooled human liver microsomes
T3 sequence (P10635 whole entry): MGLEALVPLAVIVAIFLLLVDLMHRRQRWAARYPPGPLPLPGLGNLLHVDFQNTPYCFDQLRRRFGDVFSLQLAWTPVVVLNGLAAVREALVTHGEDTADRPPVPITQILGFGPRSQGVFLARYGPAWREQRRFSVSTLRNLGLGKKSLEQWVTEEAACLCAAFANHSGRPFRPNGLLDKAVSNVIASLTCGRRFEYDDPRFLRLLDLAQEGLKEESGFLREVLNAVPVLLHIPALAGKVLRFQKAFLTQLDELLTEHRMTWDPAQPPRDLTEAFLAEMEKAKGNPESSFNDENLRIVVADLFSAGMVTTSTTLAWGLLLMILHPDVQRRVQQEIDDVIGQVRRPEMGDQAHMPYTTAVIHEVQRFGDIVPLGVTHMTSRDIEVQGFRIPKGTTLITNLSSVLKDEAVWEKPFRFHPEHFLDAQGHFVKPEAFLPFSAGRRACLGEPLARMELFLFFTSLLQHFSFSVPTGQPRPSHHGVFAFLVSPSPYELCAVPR
Method: as §1, §2, §3, §4

CYP2C19 = system: T4, CYP2C19; test: Inhibition of CYP2C19 (S-mephenytoin 4-hydroxylation) in pooled human liver microsomes; assay type: in vitro ADME; details: GAA 100 μM; pooled HLM
T4 construct: from tissue; host or cells: human liver microsomes
Method: as §1
as §2, with “There was a 3 min preincubation period (at 37 °C) before the reaction was initiated by adding an NADPH-generating system. The reaction was terminated by adding a 100 μL acetonitrile (10% trichloroacetic acid for CYP2A6) internal standard mix, and the solution was placed on ice. The mixture was centrifuged at 12,000 rpm for 10 min, and an aliquot (50 μL) of supernatant was transferred for HPLC analysis.” left out, “[2017]). […]” for “[2017]).”

CYP2C8 = system: T5, CYP2C8; test: Inhibition of CYP2C8 (paclitaxel 6α-hydroxylation) in pooled human liver microsomes; assay type: in vitro ADME; details: GAA 100 μM; pooled HLM
T5 construct: from tissue; host or cells: human liver microsomes
Method: as §1
as §2, with “There was a 3 min preincubation period (at 37 °C) before the reaction was initiated by adding an NADPH-generating system. The reaction was terminated by adding a 100 μL acetonitrile (10% trichloroacetic acid for CYP2A6) internal standard mix, and the solution was placed on ice. The mixture was centrifuged at 12,000 rpm for 10 min, and an aliquot (50 μL) of supernatant was transferred for HPLC analysis.” left out, “[2017]). […]” for “[2017]).”

CYP2D6 [7] = biological target: T3, CYP2D6; test: Time-dependent inhibition study, CYP2D6 in human liver microsomes; assay type: in vitro ADME; details: GAA 20 μM pre-incubated with HLMs and NADPH for 30 min
Method: as §5

CYP2C9 = system: T6, CYP2C9; test: Inhibition of CYP2C9 (diclofenac 4′-hydroxylation) in pooled human liver microsomes; assay type: in vitro ADME; details: GAA 100 μM; pooled HLM
T6 construct: from tissue; host or cells: human liver microsomes
Method: as §1
as §2, with “There was a 3 min preincubation period (at 37 °C) before the reaction was initiated by adding an NADPH-generating system. The reaction was terminated by adding a 100 μL acetonitrile (10% trichloroacetic acid for CYP2A6) internal standard mix, and the solution was placed on ice. The mixture was centrifuged at 12,000 rpm for 10 min, and an aliquot (50 μL) of supernatant was transferred for HPLC analysis.” left out, “[2017]). […]” for “[2017]).”

CYP1A2 = system: T7, CYP1A2; test: Inhibition of CYP1A2 (phenacetin O-deethylation) in pooled human liver microsomes; assay type: in vitro ADME; details: GAA 100 μM; pooled HLM
T7 construct: to investigate the effects of GAA on different CYP isoforms in HLM; from tissue; host or cells: human liver microsomes
Method: as §1
as §2, with “There was a 3 min preincubation period (at 37 °C) before the reaction was initiated by adding an NADPH-generating system. The reaction was terminated by adding a 100 μL acetonitrile (10% trichloroacetic acid for CYP2A6) internal standard mix, and the solution was placed on ice. The mixture was centrifuged at 12,000 rpm for 10 min, and an aliquot (50 μL) of supernatant was transferred for HPLC analysis.” left out, “[2017]). […]” for “[2017]).”

CYP2A6 = system: T8, CYP2A6; test: Inhibition of CYP2A6 (coumarin 7-hydroxylation) in pooled human liver microsomes; assay type: in vitro ADME; details: GAA 100 μM; pooled HLM
T8 construct: from tissue; host or cells: human liver microsomes
Method: as §1
as §2, with “There was a 3 min preincubation period (at 37 °C) before the reaction was initiated by adding an NADPH-generating system. The reaction was terminated by adding a 100 μL acetonitrile (10% trichloroacetic acid for CYP2A6) internal standard mix, and the solution was placed on ice. The mixture was centrifuged at 12,000 rpm for 10 min, and an aliquot (50 μL) of supernatant was transferred for HPLC analysis.” left out, “[2017]). […]” for “[2017]).”

T1 sequence (P08684 whole entry): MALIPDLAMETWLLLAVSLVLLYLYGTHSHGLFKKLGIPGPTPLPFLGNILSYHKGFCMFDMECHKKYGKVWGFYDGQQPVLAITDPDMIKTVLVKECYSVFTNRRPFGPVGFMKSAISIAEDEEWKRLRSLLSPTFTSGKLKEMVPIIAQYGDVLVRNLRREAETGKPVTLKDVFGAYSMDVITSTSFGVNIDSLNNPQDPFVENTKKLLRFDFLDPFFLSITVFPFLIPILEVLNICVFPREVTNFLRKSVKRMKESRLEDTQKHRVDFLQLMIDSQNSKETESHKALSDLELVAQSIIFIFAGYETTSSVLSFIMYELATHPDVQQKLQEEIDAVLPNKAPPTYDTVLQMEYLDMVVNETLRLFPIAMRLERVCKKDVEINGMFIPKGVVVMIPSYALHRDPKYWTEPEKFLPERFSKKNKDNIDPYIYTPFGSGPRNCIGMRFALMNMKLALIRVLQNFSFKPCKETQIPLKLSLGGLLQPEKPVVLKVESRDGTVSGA

C[C@H](CC(=O)C[C@@H](C)[C@H]1C[C@H](O)[C@@]2(C)C3=C(C(=O)C[C@]12C)[C@@]1(C)CCC(=O)C(C)(C)[C@@H]1C[C@@H]3O)C(=O)O [GAA, Ganoderic acid A]
IC50 (CYP3A4 [1]): 15 µM
Ki (CYP3A4 [1]): 7.16 µM
activity of CYP3A4, % of negative control (CYP3A4 [1]; GAA 100 μM, pooled HLM, testosterone 6β-hydroxylation, remaining activity): 14.6%
inhibition model of CYP3A4 (CYP3A4 [1]; Lineweaver-Burk plots): non-competitive
IC50 (CYP2E1 [2]): 28.3 µM
Ki (CYP2E1 [2]): 13.4 µM
activity of CYP2E1, % of negative control (CYP2E1 [2]; GAA 100 μM, pooled HLM, chlorzoxazone 6-hydroxylation, remaining activity): 27.7%
inhibition model of CYP2E1 (CYP2E1 [2]; Lineweaver-Burk plots): competitively
time dependence of inhibition of CYP2E1 (CYP2E1 [3]): stable with incubation time
maximum concentration in plasma of GAA [4]: 2.24 to 10.99 ng/mL
time dependence of inhibition of CYP3A4 (CYP3A4 [5]; GAA 20 μM pre-incubated with HLMs and NADPH for 30 min): time-dependent
CYP3A4 inactivated every minute (CYP3A4 [5]; concluded from the value of Kinact, GAA incubated with HLM): about 4.8%
IC50 (CYP2D6 [6]): 21.8 µM
Ki (CYP2D6 [6]): 10.1 µM
activity of CYP2D6, % of negative control (CYP2D6 [6]; GAA 100 μM, pooled HLM, dextromethorphan O-demethylation, remaining activity): 18.2%
inhibition model of CYP2D6 (CYP2D6 [6]; Lineweaver-Burk plots): competitively
effect on the activity of CYP2C19 (CYP2C19): did not exert effect
effect on the activity of CYP2C8 (CYP2C8): did not exert effect
time dependence of inhibition of CYP2D6 (CYP2D6 [7]): stable with incubation time
effect on the activity of CYP2C9 (CYP2C9): did not exert effect
effect on the activity of CYP1A2 (CYP1A2): did not exert effect
effect on the activity of CYP2A6 (CYP2A6): did not exert effect
